Data on three molecules can be found in patent publication US12370139B2 (TREEWAY TW001 B.V., priority 2017, dated 2025).

A short description of series [1]: Example 1: single dose, randomized, two-period, cross-over pharmacokinetic study, oral solution vs i.v. infusion. Type of series: in vivo, human. As to conditions: for Edaravone plasma concentration: time Pre. How it is done:
A single dose, randomized, two-period, cross-over study was conducted in 18 healthy male and female human subjects.

Series [2] is described as follows: Example 2: repeat of the Example 1 study, with edaravone metabolites in plasma. Type of series: in vivo, human. The conditions noted are these: for Edaravone plasma concentration: time Pre; for AUC(0-inf): extrapolated to infinity; for Ratio conjugate-to-parent drug (AUClast): ratio calculated using AUClast (h · μMol/L). From the text: The study described in Example 1 was repeated, again using 18 healthy male and female human subjects.

Series [3] can be described thus: Dissolution rate of edaravone in water. As to conditions: in the presence of an alkalizing agent, especially at at least 0.3 grams edaravone per liter. The series is classed as physicochemical. From the text:
The oxides and hydroxides of alkaline metals are preferably selected from NaOH, KOH, LiOH and combinations thereof. The oxides and hydroxides of alkali-earth metals are preferably selected from Ca(OH)2, CaO, Mg(OH)2, MgO and combinations thereof. The salts of weak organic and weak inorganic acids are preferably selected from carbonate, bicarbonate, borate, carboxylate (e.g. lactate, citrate, acetate, formate and oxalate), phosphate, sulfate and combinations thereof. The alkaline amines are preferably selected from tris(hydroxymethyl)aminomethane, ethanolamine, diethanolamine, triethanolamine, N-methyl-glucamine, glucosamine, ethylenediamine, diethylamine, triethylamine, isopropylamine, diisopropylamine, ammonia and combinations thereof. The alkaline amino acids are preferably selected from arginine, histidine, lysine and combinations thereof.

For series [4] the following is noted: male Wistar rats, cited from earlier work.
For series [5] the following is noted: SD rats, in comparison to intravenous administration; cited from earlier work.
For series [6] the following is noted: rats, oral, dose of 27 mg/kg, suspended with 0.5% CMC-Na, compared to 100% for intravenous; cited from earlier work.
For series [7] the following is noted: APP/PS1 Mice, oral 33.2 mg/kg/d; cited from earlier work.
The test system of series [8] is APP/PS1 mice. As to conditions: cited from earlier work.
[9] abbreviates: both sexes, human, plasma, iv, Example 2, i.v. infusion 60 mg.
Setting [10] is: both sexes, human, plasma, iv, Example 2, i.v. infusion (60 mg).
The mark [11] stands for this setting: both sexes, human, plasma, Example 2, oral administration 140 mg.
The mark [12] stands for this setting: both sexes, human, plasma, Example 2, oral administration (140 mg).
[13] abbreviates: i.v. infusion of edaravone 60 mg (n = 18).
[14] abbreviates: oral administration of edaravone 140 mg (n = 18).

Where two headings read alike, the source gives them in different places.

In the case of `CC1=NN(c2ccccc2)C(=O)C1` [Edaravone, 3-methyl-1-phenyl-2-pyrazolin-5-one], the Edaravone plasma concentration in series [1] (Example 1, i.v. infusion (60 mg, 60 minutes)) stood at 0 ng/mL. In addition, in series [1] (Example 1, oral administration (140 mg)), the Edaravone plasma concentration stood at 0 ng/mL. For the same molecule, the “systemic bioavailability (Fabs)” value in series [1] (Example 1, oral compared to i.v. infusion) came to 79%. The “time at which peak maximum concentrations are reached after administration” value in series [1] (Example 1, orally administered) is reported as “about 15 min”. Also, the Edaravone plasma concentration in series [2] (Example 2, i.v. infusion (60 mg)) amounted to 0 ng/mL. Also, in series [2] (Example 2, oral administration (140 mg)), the Edaravone plasma concentration came out at 0 ng/mL. For the same molecule, the “contribution of gastrointestinal metabolism to the overall plasma metabolism profile” value in series [2] (Example 2, oral in comparison to intravenous administration) was “No indication for a relevant contribution of gastrointestinal metabolism”. In series [2] (Example 2, orally administered), the “time at which peak maximum concentrations are reached after administration” value is listed as “about 14 min”. Further, the bioavailability (as a rule, dose-corrected exposure relative to a reference, in per cent) in series [2] (both sexes, human, plasma, 140 mg, Example 2, oral compared to i.v. infusion, read-out: systemic bioavailability (Fabs)) is 93%. In series [2] (setting [9]), the AUC(0-t) (as a rule, exposure summed from dosing to a finite time, without extrapolation to infinity) was found to be 1220 ng·h/mL; the Cmax (as a rule, the peak of the concentration-time curve) was found to be 943 ng/mL; the AUC(0-inf) (usually the area under the concentration-time curve extrapolated to infinity) is 1210 ng·h/mL. Also, in series [2] (setting [10]), the concentration at 0.17 h came out at 373 ng/mL, the concentration at 0.5 hrs was determined as 696 ng/mL, the concentration at 1 hrs was 943 ng/mL and the concentration at 1.5 hrs was determined as 298 ng/mL. For the same molecule, in series [2] (setting [10]), the concentration at 4 h was found to be 36 ng/mL, the concentration at 6 h turned out to be 13 ng/mL, the concentration at 8 h turned out to be 7 ng/mL and the concentration at 10 h was 5 ng/mL. In series [2] (setting [11]), the AUC(0-t) came to 2560 ng·h/mL; the Cmax amounted to 3530 ng/mL; the Tmax – broadly, the time from dosing to the highest level – amounted to 13.8 min; the AUC(0-inf) is 2570 ng·h/mL. The concentration at 0.083 h in series [2] (both sexes, human, plasma, Example 2, oral administration (140 mg), 0.083 hrs) worked out at 1530 ng/mL. Also, in series [2] (setting [12]), the concentration at 0.17 h worked out at 2760 ng/mL, the concentration at 0.5 hrs turned out to be 2000 ng/mL, the concentration at 1 hrs stood at 762 ng/mL and the concentration at 1.5 hrs worked out at 388 ng/mL. For the same molecule, in series [2] (setting [12]), the concentration at 4 h turned out to be 63 ng/mL, the concentration at 6 h turned out to be 24 ng/mL, the concentration at 8 h was determined as 13 ng/mL and the concentration at 10 h stood at 8 ng/mL. Besides, in series [2] (both sexes, human, plasma, Example 2, oral administration (140 mg), 0.25 hrs), the concentration at […] turned out to be 3060 ng/mL. In addition, the concentration at 2 hrs in series [2] (both sexes, human, plasma, Example 2, oral administration (140 mg), 2 hrs) came to 228 ng/mL. Moreover, the “rate at which edaravone dissolves in water” value in series [3] is recorded as “increased substantially”. Moreover, the plasma concentration in series [4] (orally administered at 10 mg/kg) is recorded as 243 ng/mL. The plasma concentration in series [4] (orally administered at 30 mg/kg) is 1314 ng/mL. Further, the plasma concentration in series [4] (orally administered at 100 mg/kg) was 10999 ng/mL. Moreover, the oral bioavailability in series [5] was about 5.8%. Also, the “absolute bioavailability (Fabs)” value in series [6] is 5.23%. For the same molecule, the “bioavailability of oral edaravone, of the i.v. delivery” value in series [7] was 38%. Also, the “cognitive deficits (escaping latency in platform testing, annulus crossing in probing test)” value in series [8] was “prominently attenuated”. For the same molecule, in series [8] (oral intake), the “Aβ levels in the brain” value is given as “significantly reduced”; the “Aβ plaque burden in the hippocampus and neocortex” value was “markedly alleviated”.
Turning to `Cc1cc(O[C@@H]2O[C@H](C(=O)O)[C@@H](O)[C@H](O)[C@H]2O)n(-c2ccccc2)n1` [Glucuronide conjugate], the results for the “Ratio conjugate-to-parent drug (AUClast)” value in series [2] (setting [13]) and in series [2] (setting [14]) were 1.4 ± 1.0 and 1.8 ± 0.8, respectively.
Take `Cc1cc(OS(=O)(=O)O)n(-c2ccccc2)n1` [Sulfate conjugate]: the “Ratio conjugate-to-parent drug (AUClast)” value in series [2] (setting [13]) is 9.9 ± 2.7; in series [2] (setting [14]) it was 9.5 ± 2.8.
